Reference: patent US20040235882A1, “Amino-substituted imidazopyridines for the treatment of gastrointestial diseases” (priority 2001, published 2004)

Test system: pentagastrin-stimulated acid secretion of the perfused rat stomach
Assay: Secretion-inhibiting action on the perfused rat stomach (pentagastrin-stimulated acid secretion, in vivo)
Conditions: anesthetized female CD rat, pentagastrin 1 μg/kg i.v. infusion, dose 3 μmol/kg i.d. (intraduodenal)
Source text: Testing of the secretion-inhibiting action on the perfused rat stomach
In Table A which follows, the influence of the compounds according to the invention on the pentagastrin-stimulated acid secretion of the perfused rat stomach after intraduodenal administration in vivo is shown.
The abdomen of anesthetized rats (CD rat, female, 200-250 g; 1.5 g/kg i.m. urethane) was opened after tracheotomy by a median upper abdominal incision and a PVC catheter was fixed transorally in the esophagus and another via the pylorus such that the ends of the tube just projected into the gastric lumen. The catheter leading from the pylorus led outward into the right abdominal wall through a side opening.
After thorough rinsing (about 50-100 ml), warm (37° C.) physiological NaCl solution was continuously passed through the stomach (0.5 ml/min, pH 6.8-6.9; Braun-Unita I). The pH (pH meter 632, glass electrode EA 147; φ=5 mm, Metrohm) and, by titration with a freshly prepared 0.01 N NaOH solution to pH 7 (Dosimat 665 Metrohm), the secreted HCl were determined in the effluent in each case collected at an interval of 15 minutes.
The gastric secretion was stimulated by continuous infusion of […] (=1.65 ml/h) of i.v. pentagastrin (left femoral vein) about 30 min after the end of the operation (i.e. after determination of 2 preliminary fractions). […]

Row | Compound | Inhibition of acid secretion
1 | Cc1nc2c3c(ccn2c1C)[C@@H](N1CCOCC1)[C@@H](O)CN3 [Example 9, (7R,8S,9R)-8-Hydroxy-2,3-dimethyl-7-(4-morphollno)-7,8,9,10-tetrahydroimidazo[1.2-h]-[1.7]naphthyridine] | 44%
2 | Cc1nc2c3c(ccn2c1C)[C@@H](N(C)C)[C@@H](O)CN3 [Example 19, (7R,8S,9R)-8-Hydroxy-7-(dimethylamino)-2,3-dimethyl-7,8,9,10-tetrahydroimidazo[1.2-h]-[1.7]naphthyridine] | 64%
